Data set [1] relates to A549. In words: Cytotoxicity against human A549 cells after 7 days by MTT assay. Type of data set: functional. Conditions: A549, 168 h, read-out: ED50 (the source's name). On the technique in general: Formazan colour is commonly taken as a measure of viable cells.
Data set [2] relates to HT-29. In words: Cytotoxicity against human HT-29 cells after 7 days by MTT assay. Type of data set: functional. To be noted: HT-29, 168 h, read-out: ED50 (the source's name).
The nature of data set [3]: Toxicity against brine shrimp. Format: organism-based. Conditions: artemia, in vivo.
Data set [4] relates to MCF7. Kind of data set: Cytotoxicity against human MCF7 cells after 7 days by MTT assay. Type of data set: functional. To be noted: MCF7, 168 h, read-out: ED50 (the source's name).

Structures are written as SMILES. ≈ marks a conversion by molar mass, not a printed value. Where only a bound is given, the exact number is not on record here.

By LC50 is commonly meant the concentration that kills 50% of the test population. With `CCCCCCCCCCCC[C@H](O)[C@H]1CC[C@H]([C@H](O)CC[C@H](O)C[C@H](O)CCCCC[C@@H](O)CC2=C[C@H](C)OC2=O)O1` [MURICATOCIN B], the EC50 in data set [1] was determined as 0.334 µg/mL (≈ 0.545 µM); in data set [2], 1.66 µg/mL (≈ 2.71 µM); in data set [4] it was 0.103 µg/mL (≈ 0.168 µM). In data set [3], the LC50 is 0.557 µg/mL (≈ 0.909 µM).
For the compound `CCCCCCCCCCCC[C@H](O)[C@H]1CC[C@H]([C@H](O)CC[C@H]2C[C@@H](CCCCC[C@@H](O)CC3=C[C@H](C)OC3=O)OC(C)(C)O2)O1`, the EC50 in data set [1] was 0.00718 µg/mL (≈ 0.011 µM); in data set [2], over 1 µg/mL; in data set [4], 0.878 µg/mL (≈ 1.34 µM). In data set [3], the LC50 was 0.266 µg/mL (≈ 0.407 µM).
With `COc1cccc2c1C(=O)c1c(O)c3c(c(O)c1C2=O)C[C@@](O)(C(=O)CO)C[C@@H]3O[C@H]1C[C@H](N)[C@H](O)[C@H](C)O1` [DOXORUBICIN], the values for the EC50 in data set [1] and in data set [4] were 0.00356 µg/mL (≈ 0.00655 µM) and 0.142 µg/mL (≈ 0.261 µM), respectively.
On to `CCCCCCCCCCCC[C@@H](O)[C@H]1CC[C@H]([C@H](O)CC[C@H](O)C[C@H](O)CCCCC[C@@H](O)CC2=C[C@H](C)OC2=O)O1` [MURICATOCIN A], for which the values for the EC50 in data set [1], in data set [2] and in data set [4] were 0.0755 µg/mL (≈ 0.123 µM), 1.56 µg/mL (≈ 2.55 µM) and 0.123 µg/mL (≈ 0.201 µM), respectively. Also, the LC50 in data set [3] was 0.699 µg/mL (≈ 1.14 µM).
On the same counts, the results for `CCCCCCCCCCCC[C@@H](O)[C@H]1CC[C@H]([C@H](O)CC[C@H]2C[C@@H](CCCCC[C@@H](O)CC3=C[C@H](C)OC3=O)OC(C)(C)O2)O1` are 0.00367 µg/mL (≈ 0.00562 µM), 0.508 µg/mL (≈ 0.778 µM), 0.165 µg/mL (≈ 0.253 µM) and 0.206 µg/mL (≈ 0.315 µM).

The values above are taken from ChEMBL document CHEMBL1159260, “Muricatocins A and B, two new bioactive monotetrahydrofuran Annonaceous acetogenins from the leaves of Annona muricata” (J Nat Prod, 1995).
